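Method: 48-hour compound exposure of cells in 96-well plates, five concentrations, linear interpolation of endpoints. The concentration for full growth arrest is given as TGI.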
Assays:
Test in all cases: inhibition of tumour cell growth, NCI panel, 48 h
786-0 renal = tested on: 786-0 renal
A498 renal = tested on: A498 renal
A549 NSCLC = tested on: A549 NSCLC
ACHN renal = tested on: ACHN renal
BT-549 breast = tested on: BT-549 breast
CAKI-1 renal = tested on: CAKI-1 renal
CCRF-CEM leukemia = tested on: CCRF-CEM leukemia
COLO 205 colon = tested on: COLO 205 colon
DU-145 prostate = tested on: DU-145 prostate
EKVX NSCLC = tested on: EKVX NSCLC
HCT-116 colon = tested on: HCT-116 colon
HCT-15 colon = tested on: HCT-15 colon
HL-60(TB) leukemia = tested on: HL-60(TB) leukemia
HOP-62 NSCLC = tested on: HOP-62 NSCLC
HOP-92 NSCLC = tested on: HOP-92 NSCLC
HS 578T breast = tested on: HS 578T breast
HT29 colon = tested on: HT29 colon
IGROV1 ovarian = tested on: IGROV1 ovarian
K-562 leukemia = tested on: K-562 leukemia
KM12 colon = tested on: KM12 colon
LOX IMVI melanoma = tested on: LOX IMVI melanoma
M14 melanoma = tested on: M14 melanoma
MCF7 breast = tested on: MCF7 breast
MDA-MB-231 breast = tested on: MDA-MB-231 breast
MDA-MB-435 = tested on: MDA-MB-435
MDA-N = tested on: MDA-N
MOLT-4 leukemia = tested on: MOLT-4 leukemia
NCI-H226 lung = tested on: NCI-H226 lung
NCI-H23 lung = tested on: NCI-H23 lung
NCI-H460 lung = tested on: NCI-H460 lung
NCI/ADR-RES ovarian = tested on: NCI/ADR-RES ovarian
OVCAR-3 ovarian = tested on: OVCAR-3 ovarian
OVCAR-5 ovarian = tested on: OVCAR-5 ovarian
OVCAR-8 ovarian = tested on: OVCAR-8 ovarian
PC-3 prostate = tested on: PC-3 prostate
RPMI-8226 leukemia = tested on: RPMI-8226 leukemia
SF-268 CNS = tested on: SF-268 CNS
SF-295 CNS = tested on: SF-295 CNS
SF-539 CNS = tested on: SF-539 CNS
SK-MEL-2 melanoma = tested on: SK-MEL-2 melanoma
SK-MEL-28 melanoma = tested on: SK-MEL-28 melanoma
SK-MEL-5 melanoma = tested on: SK-MEL-5 melanoma
SK-OV-3 ovarian = tested on: SK-OV-3 ovarian
SN12C renal = tested on: SN12C renal
SNB-19 CNS = tested on: SNB-19 CNS
SNB-75 CNS = tested on: SNB-75 CNS
SR leukemia = tested on: SR leukemia
SW-620 colon = tested on: SW-620 colon
T-47D breast = tested on: T-47D breast
TK-10 renal = tested on: TK-10 renal
U251 CNS = tested on: U251 CNS
UACC-257 melanoma = tested on: UACC-257 melanoma
UACC-62 melanoma = tested on: UACC-62 melanoma
UO-31 renal = tested on: UO-31 renal
HCC-2998 colon = tested on: HCC-2998 colon
MALME-3M melanoma = tested on: MALME-3M melanoma
NCI-H522 lung = tested on: NCI-H522 lung
OVCAR-4 ovarian = tested on: OVCAR-4 ovarian
RXF 393 renal = tested on: RXF 393 renal

`CCOC(=O)/C(C#N)=N\Nc1ccc(-n2c(C)nc3ccc(Br)cc3c2=O)cc1` was tested. Which TGI (786-0 renal) did it give?
The TGI was greater than 100 µM.

What about the TGI (A498 renal) of the same compound?
Its TGI is greater than 100 µM.

And the TGI (A549 NSCLC)?
The TGI was greater than 100 µM.

And the TGI (ACHN renal)?
The TGI was greater than 100 µM.

And the TGI (BT-549 breast)?
Its TGI is greater than 100 µM.

What about the TGI (CAKI-1 renal) of the same compound?
The TGI was greater than 100 µM.

And the TGI (CCRF-CEM leukemia)?
Its TGI is greater than 100 µM.

And the TGI (COLO 205 colon)?
The TGI was greater than 100 µM.

And the TGI (DU-145 prostate)?
Its TGI is greater than 100 µM.

And the TGI (EKVX NSCLC)?
The TGI was greater than 100 µM.

What about the TGI (HCT-116 colon) of the same compound?
Its TGI is greater than 100 µM.

And the TGI (HCT-15 colon)?
Its TGI is greater than 100 µM.

What about the TGI (HL-60(TB) leukemia) of the same compound?
Its TGI is greater than 100 µM.

And the TGI (HOP-62 NSCLC)?
The TGI was greater than 100 µM.

And the TGI (HOP-92 NSCLC)?
Its TGI is greater than 100 µM.

What about the TGI (HS 578T breast) of the same compound?
The TGI was greater than 100 µM.

What about the TGI (HT29 colon) of the same compound?
Its TGI is greater than 100 µM.

What about the TGI (IGROV1 ovarian) of the same compound?
The TGI was greater than 100 µM.

What about the TGI (K-562 leukemia) of the same compound?
The TGI was greater than 100 µM.

What about the TGI (KM12 colon) of the same compound?
Its TGI is greater than 100 µM.

And the TGI (LOX IMVI melanoma)?
Its TGI is greater than 100 µM.

What about the TGI (M14 melanoma) of the same compound?
Its TGI is greater than 100 µM.

What about the TGI (MCF7 breast) of the same compound?
Its TGI is greater than 100 µM.

What about the TGI (MDA-MB-231 breast) of the same compound?
The TGI was greater than 100 µM.

And the TGI (MDA-MB-435)?
The TGI was greater than 100 µM.

And the TGI (MDA-N)?
Its TGI is greater than 100 µM.

And the TGI (MOLT-4 leukemia)?
Its TGI is greater than 100 µM.

And the TGI (NCI-H226 lung)?
The TGI was greater than 100 µM.

What about the TGI (NCI-H23 lung) of the same compound?
The TGI was greater than 100 µM.

What about the TGI (NCI-H460 lung) of the same compound?
Its TGI is greater than 100 µM.

What about the TGI (NCI/ADR-RES ovarian) of the same compound?
The TGI was greater than 100 µM.

And the TGI (OVCAR-3 ovarian)?
Its TGI is greater than 100 µM.

What about the TGI (OVCAR-5 ovarian) of the same compound?
Its TGI is greater than 100 µM.

What about the TGI (OVCAR-8 ovarian) of the same compound?
Its TGI is greater than 100 µM.

And the TGI (PC-3 prostate)?
The TGI was greater than 100 µM.

What about the TGI (RPMI-8226 leukemia) of the same compound?
The TGI was greater than 100 µM.

What about the TGI (SF-268 CNS) of the same compound?
The TGI was greater than 100 µM.

What about the TGI (SF-295 CNS) of the same compound?
Its TGI is greater than 100 µM.

What about the TGI (SF-539 CNS) of the same compound?
Its TGI is greater than 100 µM.

What about the TGI (SK-MEL-2 melanoma) of the same compound?
Its TGI is greater than 100 µM.

What about the TGI (SK-MEL-28 melanoma) of the same compound?
The TGI was greater than 100 µM.

What about the TGI (SK-MEL-5 melanoma) of the same compound?
Its TGI is greater than 100 µM.

What about the TGI (SK-OV-3 ovarian) of the same compound?
Its TGI is greater than 100 µM.

What about the TGI (SN12C renal) of the same compound?
The TGI was greater than 100 µM.

And the TGI (SNB-19 CNS)?
Its TGI is greater than 100 µM.

And the TGI (SNB-75 CNS)?
The TGI was greater than 100 µM.

What about the TGI (SR leukemia) of the same compound?
Its TGI is greater than 100 µM.

And the TGI (SW-620 colon)?
Its TGI is greater than 100 µM.

What about the TGI (T-47D breast) of the same compound?
The TGI was greater than 100 µM.

What about the TGI (TK-10 renal) of the same compound?
Its TGI is greater than 100 µM.

And the TGI (U251 CNS)?
The TGI was greater than 100 µM.

What about the TGI (UACC-257 melanoma) of the same compound?
The TGI was greater than 100 µM.

And the TGI (UACC-62 melanoma)?
The TGI was greater than 100 µM.

And the TGI (UO-31 renal)?
The TGI was greater than 100 µM.

How did the TGI (786-0 renal) turn out when `COC(=O)c1c(OC(C)=O)ccc2c1c1c(n2Cc2ccccc2)C(=O)c2ccccc2C1=O` was run?
Its TGI is 52.4 µM.

What about the TGI (A498 renal) of the same compound?
The TGI was 43.6 µM.

What about the TGI (A549 NSCLC) of the same compound?
Its TGI is 83.9 µM.

What about the TGI (ACHN renal) of the same compound?
Its TGI is greater than 100 µM.

What about the TGI (BT-549 breast) of the same compound?
The TGI was 48.5 µM.

And the TGI (CAKI-1 renal)?
The TGI was 51.2 µM.

And the TGI (CCRF-CEM leukemia)?
Its TGI is 68.6 µM.

What about the TGI (COLO 205 colon) of the same compound?
Its TGI is 30.5 µM.

What about the TGI (DU-145 prostate) of the same compound?
Its TGI is 36.5 µM.

And the TGI (EKVX NSCLC)?
Its TGI is 48.3 µM.

What about the TGI (HCC-2998 colon) of the same compound?
The TGI was 30.3 µM.

What about the TGI (HCT-116 colon) of the same compound?
Its TGI is 34.2 µM.

And the TGI (HCT-15 colon)?
The TGI was 41.9 µM.

And the TGI (HL-60(TB) leukemia)?
The TGI was 57.2 µM.

And the TGI (HOP-62 NSCLC)?
Its TGI is 44.5 µM.

What about the TGI (HOP-92 NSCLC) of the same compound?
The TGI was 39.8 µM.

And the TGI (HS 578T breast)?
Its TGI is 48.3 µM.

And the TGI (HT29 colon)?
Its TGI is 32.3 µM.

And the TGI (IGROV1 ovarian)?
Its TGI is 50.4 µM.

And the TGI (K-562 leukemia)?
The TGI was 87.3 µM.

And the TGI (KM12 colon)?
The TGI was 47.4 µM.

What about the TGI (M14 melanoma) of the same compound?
Its TGI is 47.5 µM.

What about the TGI (MALME-3M melanoma) of the same compound?
Its TGI is 50.7 µM.

And the TGI (MCF7 breast)?
The TGI was greater than 100 µM.

And the TGI (MDA-MB-231 breast)?
Its TGI is 36.8 µM.

And the TGI (MDA-MB-435)?
Its TGI is 35.8 µM.

What about the TGI (MDA-N) of the same compound?
Its TGI is 38.3 µM.

And the TGI (MOLT-4 leukemia)?
Its TGI is greater than 100 µM.

What about the TGI (NCI-H226 lung) of the same compound?
The TGI was 49.3 µM.

What about the TGI (NCI-H23 lung) of the same compound?
Its TGI is 42.1 µM.

And the TGI (NCI-H460 lung)?
Its TGI is greater than 100 µM.

And the TGI (NCI-H522 lung)?
The TGI was 46.6 µM.

What about the TGI (NCI/ADR-RES ovarian) of the same compound?
Its TGI is 61.6 µM.

And the TGI (OVCAR-3 ovarian)?
Its TGI is 36.3 µM.

What about the TGI (OVCAR-4 ovarian) of the same compound?
The TGI was 74.2 µM.

And the TGI (OVCAR-5 ovarian)?
Its TGI is 41.3 µM.

And the TGI (OVCAR-8 ovarian)?
The TGI was 89.1 µM.

And the TGI (PC-3 prostate)?
The TGI was 59.8 µM.

What about the TGI (RPMI-8226 leukemia) of the same compound?
Its TGI is 36.4 µM.

What about the TGI (RXF 393 renal) of the same compound?
The TGI was 37.8 µM.

What about the TGI (SF-268 CNS) of the same compound?
Its TGI is 78.1 µM.

What about the TGI (SF-295 CNS) of the same compound?
The TGI was 38.5 µM.

What about the TGI (SF-539 CNS) of the same compound?
The TGI was 33.7 µM.

What about the TGI (SK-MEL-2 melanoma) of the same compound?
Its TGI is 36.2 µM.

What about the TGI (SK-MEL-28 melanoma) of the same compound?
The TGI was 41.2 µM.

And the TGI (SK-MEL-5 melanoma)?
The TGI was 28.1 µM.

And the TGI (SK-OV-3 ovarian)?
The TGI was 66.9 µM.

And the TGI (SN12C renal)?
Its TGI is 37.5 µM.

And the TGI (SNB-19 CNS)?
The TGI was 97.1 µM.

What about the TGI (SNB-75 CNS) of the same compound?
Its TGI is 52.4 µM.

What about the TGI (SR leukemia) of the same compound?
The TGI was 64.5 µM.

And the TGI (T-47D breast)?
Its TGI is 56.3 µM.

What about the TGI (TK-10 renal) of the same compound?
The TGI was 95.4 µM.

And the TGI (U251 CNS)?
The TGI was 42.4 µM.

What about the TGI (UACC-257 melanoma) of the same compound?
The TGI was 26.8 µM.

And the TGI (UACC-62 melanoma)?
Its TGI is 48.8 µM.

What about the TGI (UO-31 renal) of the same compound?
The TGI was greater than 100 µM.

— PubChem BioAssay (NCI)
